Laboratory results from US11286255B2, “Pyridone carboxylic acid derivative or salt thereof” (WAKUNAGA PHARMACEUTICAL CO., LTD., priority 2017, dated 2022).

Tests used:
[1] = tested on: PC-3 (human prostate cancer cell line); experiment: In vivo antitumor effect test against PC-3 xenograft; design: species or system female Balb/c nu-nu mouse; conditions: PC-3 xenograft in Balb/c nu-nu mice, 20 mg/kg, IV, Q7D ×3, tumor growth inhibition vs vehicle group
Protocol: Test Example 3: In Vivo Antitumor Effect Test Against PC-3 (Human Prostate Cancer Cell Line)
A suspension of cancer cells (1×10^7 cells/mL) prepared in RPMI culture medium (Sigma-Aldrich Co. LLC, R8758) was subcutaneously inoculated in an amount of 200 μL to the right abdomen of each female Balb/c nu-nu mouse (Charles River Laboratories Japan, Inc.). After tumor engraftment, animals having a sufficient tumor size were randomly assigned to an active (compound A or compound 078) group and a control (vehicle) group.
Each test compound (drug) was dissolved at each administration concentration in physiological saline containing 12.5 mM sodium hydroxide. The administration of the compound or a vehicle was started on the day of randomization and continued once a week for 21 days. During the test period, the body weights were measured twice a week throughout the treatment period, and tumors were measured twice a week using calipers. The tumor volumes were measured according to the expression V=L×W^2/2 (V: volume, mm3; L: length, mm; W: width, mm). Using the following expression:
% TGI=100−((Average tumor volume of the treatment group Average tumor volume of the control group)×100), tumor growth inhibition was calculated on the basis of the average tumor volume of the vehicle group.

[2] = tested on: WI-38 (human fetal lung fibroblast cell line); experiment: In vitro cell growth inhibition test against WI-38; assay type: cell-based; conditions: WI-38 normal cells, 12.5 μM compound, 3 days culture, WST-8, control group = 100%
Protocol: Test Example 4: In Vitro Cell Growth Inhibition Test Against WI-38 (Human Fetal Lung Fibroblast Cell Line)
A WI-38 cell suspension was inoculated at 5×10^3 cells/100 μL/well (0.1 mL) to a 96-well flat-bottomed multiplate using DMEM (Sigma-Aldrich Co. LLC, D6429) medium containing 10% FBS (fetal bovine serum, Nichirei Biosciences Inc.), and cultured at 37° C. for 1 day in an incubator containing 5% carbon dioxide. Compound A or the compound of the present invention was dissolved at a concentration of 10 mM in dimethyl sulfoxide and further diluted into 12.5 μM (final concentration) using dimethyl sulfoxide and RPMI-1640 medium. This dilution was added at 0.1 mL/well to the culture plate of the WI-38 cells mentioned above after removal of the medium, and the cells were cultured at 37° C. for 3 days in an incubator containing 5% carbon dioxide.
After the culture, Cell Counting Kit-8 (Dojindo Laboratories), which adopts WST-8 as a chromogenic substrate, was added at 10 μL/well, and the cells were cultured under the same conditions as above for 1 hour, followed by measurement of absorbance at 450 nm. A cell survival rate was calculated with that of a control group defined as 100%.

[3] = tested on: MV4-11 (human acute myeloid leukemia cell line); experiment: In vitro cell growth inhibition test against MV4-11; assay type: cell-based; conditions: 72 h, MV4-11 cells, 3 days culture, WST-8 (Cell Counting Kit-8), 50% growth inhibition concentration
Protocol: Test Example 2: In Vitro Cell Growth Inhibition Test Against MV4-11 (Human Acute Myeloid Leukemia Cell Line)
The compound of the present invention was dissolved at a concentration of 1 mM in dimethyl sulfoxide and further diluted into 10.00, 2.50, 0.625, 0.156, 0.039, 0.0098, 0.0024, and 0.00061 μM (final concentrations) using dimethyl sulfoxide and IMDM (Thermo Fisher Scientific Inc., 12440-053) medium. Each of these dilutions was added at 0.05 mL/well to a 96-well flat-bottomed multiplate. An MV4-11 cell suspension was diluted into […] using IMDM (Thermo Fisher Scientific Inc., 12440-053) medium containing […] (fetal bovine serum, Thermo Fisher Scientific Inc.), and this dilution was added at 0.05 mL/well to the compound-containing 96-well flat-bottomed multiplate mentioned above, and cultured at 37° C. for 3 days in an incubator containing 5% carbon dioxide.
After the culture, Cell Counting Kit-8 (Dojindo Laboratories), which adopts WST-8 as a chromogenic substrate, was added at 10 μL/well, and the cells were cultured under the same conditions as above for 6 hours, followed by measurement of absorbance at 450 nm. A cell survival rate was calculated in terms of 50% growth inhibition concentration (IC50 (μM)) by the least square method with that of a control group defined as 100%.

[4] = tested on: NCI-H460 (human non-small cell lung cancer cell line); experiment: In vitro cell growth inhibition test against NCI-H460; assay type: cell-based; conditions: 72 h, NCI-H460 cells, 3 days culture, WST-8 (Cell Counting Kit-8), 50% growth inhibition concentration
Protocol: Test Example 1: In Vitro Cell Growth Inhibition Test Against NCI-H460 (Human Non-Small Cell Lung Cancer Cell Line)
An NCI-H460 cell suspension was inoculated at 4×10^3 cells/100 μL/well (0.1 mL) to a 96-well flat-bottomed multiplate using RPMI-1640 (Sigma-Aldrich Co. LLC, R8758) medium containing 10% […] (fetal bovine serum, Thermo Fisher Scientific Inc.), and cultured at 37° C. for 1 day in an incubator containing 5% carbon dioxide. The compound of the present invention was dissolved at a concentration of 1 mM in dimethyl sulfoxide and further diluted into 5.00, 2.50, 1.25, 0.63, 0.31, 0.16, 0.078, and 0.039 μM (final concentrations) using dimethyl sulfoxide and RPMI-1640 medium. Each of these dilutions was added at 0.1 mL/well to the culture plate of the NCI-H460 cells mentioned above after removal of the medium, and the cells were cultured at 37° C. for 3 days in an incubator containing 5% carbon dioxide.
After the culture, Cell Counting Kit-8 (Dojindo Laboratories), which adopts WST-8 [2-(2-methoxy-4-nitrophenyl)-3-(4-nitrophenyl)-5-(2,4-disulfophenyl)-2H-tetrazolium monosodium salt] as a chromogenic substrate, was added at 10 μL/well, and the cells were cultured under the same conditions as above for 1 hour, followed by measurement of absorbance at 450 nm. A cell survival rate was calculated in terms of 50% growth inhibition concentration (IC50 (μM)) by the least square method with that of a control group defined as 100%.

human cancer cells [5] = conditions: cited from earlier work
[6] = tested on: relapsed/refractory acute myeloid leukemia; conditions: phase III trial, in combination with cytarabine, over-sixties; cited from earlier work
human cancer cells [7] = conditions: cited from earlier work; remark: listed apart in the source

| Structure (SMILES) | % TGI [1] [%] | Cell survival rate (%) [2] [%] | IC50 [3] [µM] | IC50 [4] [nM] | antitumor effect in vivo (human cancer cells [5]) | therapeutic effect as compared with a placebo group [6] | antitumor effect in vitro (human cancer cells [7]) |
| --- | --- | --- | --- | --- | --- | --- | --- |
| CNC1CN(c2ccc3c(=O)c(C(=O)O)cn(-c4nccs4)c3n2)CC1OC (centres unmarked) [Compound A, 1,4-Dihydro-7-(3-methoxy-4-methylamino-1-pyrrolidinyl)-4-oxo-1-(2-thiazolyl)-1,8-naphthyridine-3-carboxylic acid, reference compound] | 21.7 | 26 | 10.3 | 370 | – | – | – |
| CNC1CN(c2ccc3c(=O)c(C(=O)O)cn(-c4nccs4)c3n2)CC1OC (centres unmarked) [1,4-dihydro-7-(3-methoxy-4-methylamino-1-pyrrolidinyl)-4-oxo-1-(2-thiazolyl)-1,8-naphthyridine-3-carboxylic acid] | – | – | – | – | excellent antitumor effect | significant therapeutic effect | excellent antitumor effect |
| Cc1cc(N2CC(C(=O)NCC3CCCCO3)C2)nc2c1c(=O)c(C(=O)O)cn2-c1nccs1 (centres unmarked) [Example 078, 5-methyl-7-{3-[(oxan-2-ylmethyl)carbamoyl]azetidin-1-yl}-4-oxo-1-(1,3-thiazol-2-yl)-1,4-dihydro-1,8-naphthyridine-3-carboxylic acid] | 49.2 | 68 | 1.4 | 92 | – | – | – |
